# According to patent US20240050577A1, “CDK INHIBITORS AND PHARMACEUTICAL USES THEREOF” (RISEN (SUZHOU) PHARMA TECH CO., LTD., priority 2022, published 2024):
# Read-outs that look alike come from different tables or passages of the source.
# Test system: OVCAR3 cells
# Assay: Cell proliferation study (Cell Titer Glo, 72 h)
# Format: cell-based
# Settings: read-out: IC50, inhibitory effect on cellular proliferation
# Protocol: OVCAR3 (Cobioer, CBP60294) cell line in logarithmic growth phase was used for these experiments. The cell density was adjusted to 1.1×10^4/mL and the cells were inoculated into a 96-well cell culture plate (Corning, 3599), 95 μL per well (the number of cells per well was 1×10^3). The culture plate was placed in an incubator, with 5% carbon dioxide, at 37° C. and incubated overnight. On the next day, a 10 mM stock solution of test compound was prepared in DMSO (Sigma, RNBF5902). After gradient dilution, a series of working solutions with different concentrations of test compound was prepared using complete medium. Working solution was added into the corresponding wells of the orifice plate, and the plate was placed in a 5% carbon dioxide incubator and cultivated at 37° C. for 72 h, and then removed from the incubator. To each well was added 50 μL Cell Tier Glo (Promega, G7573), and the plate was incubated at room temperature for 10 min, followed by luminescence detection with an enzyme marker. The inhibition curve was obtained with GraphPad 7.0 software using four-parameter equation.
# [1] = Homo sapiens, OVCAR-3, luminescence
Structure (SMILES),IC50 [1] [nM],IC50 (luminescence) [nM]
C[C@@]1(O)CCC[C@H]1n1c(=O)ccc2cnc(NC3CCN(S(=O)(=O)C4CCN(C(=O)CC5CCN(c6cc7c(cc6F)C(=O)N(C6CCC(=O)NC6=O)C7=O)CC5)CC4)CC3)nc21 (some centres unmarked) [Compound 62],1000 to 5000,–
CC(C)N1CCOc2c(F)cc(-c3nc(Nc4ccc(S(=O)(=O)N5CCC(NC(=O)C6CCN(c7cccc8c7C(=O)N(C7CCC(=O)NC7=O)C8=O)CC6)CC5)cc4)ncc3F)cc21 (centres unmarked) [Compound 73],> 10000,–
C[C@@]1(O)CCC[C@H]1n1c(=O)c(Cl)cc2cnc(NC3CCN(S(=O)(=O)C4CCN(C5CC6(CCN(c7cc8c(cc7F)C(=O)N(C7CCC(=O)NC7=O)C8=O)CC6)C5)CC4)CC3)nc21 (some centres unmarked) [Compound 34],> 10000,–
Cc1nc2c(F)cc(-c3nc(NC4CCN(S(=O)(=O)C5CCN(CC6CC7CCC(C6)N7C6CN(c7cc8c(cc7F)C(=O)N(C7CCC(=O)NC7=O)C8=O)C6)CC5)CC4)ncc3F)cc2n1C(C)C (centres unmarked) [Compound 101],< 100,–
CC(C)[C@@H]1CC[C@@H](C)C[C@H]1OCC(=O)NCCS(=O)(=O)N1CCC(Nc2ncc(F)c(-c3cc(F)c4c(c3)N(C(C)C)CCO4)n2)CC1 [Compound 27],> 10000,–
Cc1ccsc1C(=O)n1nc(Nc2ccc(S(=O)(=O)NCCOCc3cn(CCOCCOCCNc4cccc5c4C(=O)N(C4CCC(=O)NC4=O)C5=O)nn3)cc2)nc1N (centres unmarked) [Compound 32],> 10000,–
Cc1nc2c(F)cc(-c3nc(Nc4ccc(S(=O)(=O)N5CCC6(CCN(CC7CCN(c8cc9c(cc8F)C(=O)N(C8CCC(=O)NC8=O)C9=O)CC7)CC6)CC5)cc4)ncc3F)cc2n1C(C)C (centres unmarked) [Compound 106],1000 to 5000,–
CC(C)N1CCOc2c(F)cc(-c3nc(Nc4ccc(C5CCN(CCOCCOCCNc6cccc7c6C(=O)N(C6CCC(=O)NC6=O)C7=O)CC5)cn4)ncc3F)cc21 (centres unmarked) [Compound 2],> 10000,–
C[C@@]1(O)CCC[C@H]1n1c(=O)ccc2cnc(NC3CCN(S(=O)(=O)C4CCN(C5CCC6(CC5)CCN(c5cc7c(cc5F)C(=O)N(C5CCC(=O)NC5=O)C7=O)CC6)CC4)CC3)nc21 (some centres unmarked) [Compound 89],101 to 1000,–
"CC(C)N1CCOc2c(F)cc(-c3nc(Nc4ccc(C5CCN(C6CC7(CCN(c8cc9c(cc8F)C(=O)N(C8CCC(=O)NC8=O)C9=O)CC7)C6)CC5)cn4)ncc3F)cc21 (centres unmarked) [Compound 18, 2-(2,6-dioxo-3-piperidyl)-5-fluoro-6-[2-[4-[6-[[5-fluoro-4-(8-fluoro-4-isopropyl-2,3-dihydro-1,4-benzoxazin-6-yl)pyrimidin-2-yl]amino]-3-pyridyl]-1-piperidyl]-7-azaspiro[3.5]nonan-7-yl]isoindoline-1,3-dione]",> 10000,–
C[C@@]1(O)CCC[C@H]1n1c(=O)ccc2cnc(Nc3ccc(S(=O)(=O)C4CCN(C5CC6(CCN(c7cc8c(cc7F)C(=O)N(C7CCC(=O)NC7=O)C8=O)CC6)C5)CC4)cc3)nc21 (some centres unmarked) [Compound 22],> 10000,–
"CC(C)N1CCOc2c(F)cc(-c3nc(NC4CCN(S(=O)(=O)C5CCN(CC6CCN(c7ccc8c(c7)C(=O)N(C7CCC(=O)NC7=O)C8=O)CC6)CC5)CC4)ncc3F)cc21 (centres unmarked) [Compound 19, 2-(2,6-dioxo-3-piperidyl)-5-[4-[[4-[[4-[[5-fluoro-4-(8-fluoro-4-isopropyl-2,3-dihydro-1,4-benzoxazin-6-yl)pyrimidin-2-yl]amino]-1-piperidyl]sulfonyl]-1-piperidyl]methyl]-1-piperidyl]isoindoline-1,3-dione]",101 to 1000,–
Cc1nc2c(F)cc(-c3nc(Nc4ccc(S(=O)(=O)N5CCN(CC6CCN(c7cccc8c7C(=O)N(C7CCC(=O)NC7=O)C8=O)CC6)CC5)cc4)ncc3F)cc2n1C(C)C (centres unmarked) [Compound 57],101 to 1000,–
CC(C)N1CCOc2c(F)cc(-c3nc(Nc4ccc(C5CCN(C(=O)CCCCCCCCOc6cccc7c6C(=O)N(C6CCC(=O)NC6=O)C7=O)CC5)cn4)ncc3F)cc21 (centres unmarked) [Compound 7],> 10000,–
CC(C)N1CCOc2c(F)cc(-c3nc(Nc4ccc(S(=O)(=O)N5CCN(CC6CCN(c7ccc8c(c7)C(=O)N(C7CCC(=O)NC7=O)C8=O)CC6)CC5)cc4)ncc3F)cc21 (centres unmarked) [Compound 33],> 10000,–
CC(C)N1CCOc2c(F)cc(-c3nc(Nc4ccc(C5CCN(CCCCCCOc6cccc7c6C(=O)N(C6CCC(=O)NC6=O)C7=O)CC5)cn4)ncc3F)cc21 (centres unmarked) [Compound 3],–,> 10000
C[C@@]1(O)CCC[C@H]1n1c(=O)ccc2cnc(NC3CCN(S(=O)(=O)C4CCN(C(=O)C56CC(NCC7CCN(c8cc9c(cc8F)C(=O)N(C8CCC(=O)NC8=O)C9=O)CC7)(C5)C6)CC4)CC3)nc21 (some centres unmarked) [Compound 36],101 to 1000,–
C[C@@]1(O)CCC[C@H]1n1c(=O)ccc2cnc(Nc3ccc(S(=O)(=O)C4CCN(CC5CCN(c6cc7c(cc6F)C(=O)N(C6CCC(=O)NC6=O)C7=O)CC5)CC4)cc3)nc21 (some centres unmarked) [Compound 23],> 10000,–
Cc1nc2c(F)cc(-c3nc(Nc4ccc(NS(=O)(=O)CCNC(=O)CO[C@@H]5C[C@H](C)CC[C@H]5C(C)C)cc4)ncc3F)cc2n1C(C)C (racemic) [Compound 26],1000 to 5000,–

Structure (SMILES),IC50 [1] [nM],IC50 (luminescence) [nM]
Cc1nc2c(F)cc(-c3nc(NC4CCN(S(=O)(=O)C5CCN(CC6CCC7(CC6)CN(c6cc8c(cc6F)C(=O)N(C6CCC(=O)NC6=O)C8=O)C7)CC5)CC4)ncc3F)cc2n1C(C)C (centres unmarked) [Compound 97],101 to 1000,–
Cc1nc2c(F)cc(-c3nc(NC4CCN(S(=O)(=O)C5CCN(C6CC7(CCN(c8cc9c(cc8F)C(=O)N(C8CCC(=O)NC8=O)C9=O)CC7)C6)CC5)CC4)ncc3F)cc2n1C(C)C (centres unmarked) [Compound 75],1000 to 5000,–
Cc1nc2c(F)cc(-c3nc(NC4CCN(S(=O)(=O)C5CN(CC6CCN(c7cc8c(cc7F)C(=O)N(C7CCC(=O)NC7=O)C8=O)CC6)C5)CC4)ncc3F)cc2n1C(C)C (centres unmarked) [Compound 100],101 to 1000,–
Cc1nc2c(F)cc(-c3nc(Nc4ccc(S(=O)(=O)C5CCN(CC6CCN(c7cc8c(cc7F)C(=O)N(C7CCC(=O)NC7=O)C8=O)CC6)CC5)cc4)ncc3F)cc2n1C(C)C (centres unmarked) [Compound 110],101 to 1000,–
C[C@@]1(O)CCC[C@H]1n1c(=O)ccc2cnc(NC3CCN(S(=O)(=O)C4CCN(C5CC6(CCN(c7cccc8c7C(=O)N(C7CCC(=O)NC7=O)C8=O)CC6)C5)CC4)CC3)nc21 (some centres unmarked) [Compound 107],101 to 1000,–
Cc1nc2c(F)cc(-c3nc(Nc4ccc(S(=O)(=O)N5CCN(C6CCN(C7CN(c8cccc9c8C(=O)N(C8CCC(=O)NC8=O)C9=O)C7)CC6)CC5)cc4)ncc3F)cc2n1C(C)C (centres unmarked) [Compound 56],1000 to 5000,–
Cc1nc2c(F)cc(-c3nc(Nc4ccc(S(=O)(=O)C5CCN(C6CN(C7CCN(c8cc9c(cc8F)C(=O)N(C8CCC(=O)NC8=O)C9=O)CC7)C6)CC5)cc4)ncc3F)cc2n1C(C)C (centres unmarked) [Compound 66],< 100,–
CC(C)N1CCOc2c(F)cc(-c3nc(Nc4ccc(C5CCN(CCCCCCOc6cccc7c6C(=O)N(C6CCC(=O)NC6=O)C7=O)CC5)cn4)ncc3F)cc21 (centres unmarked) [Compound 28],> 10000,–
C[C@@]1(O)CCC[C@H]1n1c(=O)ccc2cnc(NC3CCN(S(=O)(=O)C4CCN(C(=O)C5CCC6(CC5)CCN(c5cc7c(cc5F)C(=O)N(C5CCC(=O)NC5=O)C7=O)CC6)CC4)CC3)nc21 (some centres unmarked) [Compound 78],101 to 1000,–
Cc1nc2c(F)cc(-c3nc(Nc4ccc(S(=O)(=O)N5CCC6(CCN(C(=O)COc7cccc8c7C(=O)N(C7CCC(=O)NC7=O)C8=O)CC6)CC5)cc4)ncc3F)cc2n1C(C)C (centres unmarked) [Compound 39],1000 to 5000,–
C[C@@]1(O)CCC[C@H]1n1c(=O)ccc2cnc(NC3CCN(S(=O)(=O)N4CCN(CC5CCN(c6cc7c(cc6F)C(=O)N(C6CCC(=O)NC6=O)C7=O)C5)CC4)CC3)nc21 (some centres unmarked) [Compound 61],101 to 1000,–
C[C@@]1(O)CCC[C@H]1n1c(=O)ccc2cnc(NC3CCN(S(=O)(=O)NCCOCc4cn(CCOCCOCCNc5cccc6c5C(=O)N(C5CCC(=O)NC5=O)C6=O)nn4)CC3)nc21 (some centres unmarked) [Compound 91],1000 to 5000,–
C[C@@]1(O)CCC[C@H]1n1c(=O)ccc2cnc(NC3CCN(S(=O)(=O)C4CCN(CC5CC6(CCN(c7cc8c(cc7F)C(=O)N(C7CCC(=O)NC7=O)C8=O)CC6)C5)CC4)CC3)nc21 (some centres unmarked) [Compound 82],101 to 1000,–
Cc1nc2c(F)cc(-c3nc(NC4CCN(S(=O)(=O)C5CCN(CC6CC(N7CCC(c8cccc(C9CCC(=O)NC9=O)c8)CC7)C6)CC5)CC4)ncc3F)cc2n1C(C)C (centres unmarked) [Compound 102],101 to 1000,–
Cc1nc2c(F)cc(-c3nc(N[C@@H]4CCN(S(=O)(=O)C5CCN(CC6CCN(c7cc8c(cc7F)C(=O)N(C7CCC(=O)NC7=O)C8=O)CC6)CC5)C[C@H]4O)ncc3Cl)cc2n1C(C)C (some centres unmarked) [Compound 112],101 to 1000,–
Cc1nc2c(F)cc(-c3nc(Nc4ccc(S(=O)(=O)N5CCC6(CCN(C(=O)CNc7cc8c(cc7F)C(=O)N(C7CCC(=O)NC7=O)C8=O)CC6)CC5)cc4)ncc3F)cc2n1C(C)C (centres unmarked) [Compound 105],101 to 1000,–
CC(C)N1CCOc2c(F)cc(-c3nc(Nc4ccc(C5CCN(C(=O)COCCOCCNc6cccc7c6C(=O)N(C6CCC(=O)NC6=O)C7=O)CC5)cn4)ncc3F)cc21 (centres unmarked) [Compound 5],< 100,–
"CC(C)N1CCOc2c(F)cc(-c3nc(Nc4ccc(S(=O)(=O)NCCOCc5cn(CCOCCOCCNc6cccc7c6C(=O)N(C6CCC(=O)NC6=O)C7=O)nn5)cc4)ncc3F)cc21 (centres unmarked) [Compound 20, N-[2-[[1-[2-[2-[2-[[2-(2,6-dioxo-3-piperidyl)-1,3-dioxo-isoindolin-4-yl]amino]ethoxy]ethoxy]ethyl]triazol-4-yl]methoxy]ethyl]-4-[[5-fluoro-4-(8-fluoro-4-isopropyl-2,3-dihydro-1,4-benzoxazin-6-yl)pyrimidin-2-yl]amino]benzenesulfonamide]",> 10000,–
Cc1nc2c(F)cc(-c3nc(Nc4ccc(S(=O)(=O)N5CCN(CC6CCN(c7ccc8c(c7)C(=O)N(C7CCC(=O)NC7=O)C8=O)CC6)CC5)cc4)ncc3F)cc2n1C(C)C (centres unmarked) [Compound 68],101 to 1000,–
